Source: patent US20230085307A1, “PYRIDAZINONE COMPOUND AND HERBICIDE” (NISSAN CHEMICAL CORPORATION, priority 2019, published 2023)

What was measured:
persian speedwell [1] = assay: Test Example 4: herbicidal effect by soil treatment (Table 19, symbol R); format: in vivo, Persian speedwell (Veronica persica); conditions: 320 g/ha
Method in brief: (§1)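 Soil-surface application: an emulsion agent diluted with water to the predetermined dose is sprayed uniformly over seeds lying under roughly 1.5 cm of sterilized diluvial soil. Boxes stay in a greenhouse at 25° C. to 30° C. Three weeks later, each species is graded on previously defined criteria.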

barnyard grass [2] = assay: Test Example 5: herbicidal effect by foliage application, plastic box (Table 20, symbol H); format: in vivo, barnyard grass (Echinochloa crus-galli); conditions: foliage application, 320 g/ha, 3 weeks after application
Method in brief: (§2)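 Sow seeds spot-wise in sterilized diluvial soil; cover with ~1.5 cm soil. Grow 14 days in greenhouse, 25° C. to 30° C. Spray foliage with emulsion diluted to predetermined amount. Rate effect after 3 weeks.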

persian speedwell [3] = assay: Test Example 5: herbicidal effect by foliage application, plastic box (Table 20, symbol R); format: in vivo, Persian speedwell (Veronica persica); conditions: foliage application, 320 g/ha, 3 weeks after application
Method in brief: as §2

windgrass [4] = assay: Test Example 4: herbicidal effect by soil treatment (Table 19, symbol L); format: in vivo, windgrass (Apera spica-venti); conditions: 320 g/ha
Method in brief: as §1

redroot pigweed = assay: Test Example 4: herbicidal effect by soil treatment (Table 19, symbol N); format: in vivo, redroot pigweed (Amaranthus retroflexus); conditions: 320 g/ha
Method in brief: as §1

velvetleaf [5] = assay: Test Example 4: herbicidal effect by soil treatment (Table 19, symbol M); format: in vivo, velvetleaf (Abutilon theophrasti); conditions: 320 g/ha
Method in brief: as §1

green foxtail [6] = assay: Test Example 5: herbicidal effect by foliage application, plastic box (Table 20, symbol G); format: in vivo, green foxtail (Setaria viridis); conditions: foliage application, 320 g/ha, 3 weeks after application
Method in brief: as §2

wild oat [7] = assay: Test Example 5: herbicidal effect by foliage application, plastic box (Table 20, symbol I); format: in vivo, wild oat (Avena fatua); conditions: foliage application, 320 g/ha, 3 weeks after application
Method in brief: as §2

Japanese bulrush = assay: Test Example 2: herbicidal activity, application during weed generation under submerged conditions (Table 17, symbol B); format: in vivo, Japanese bulrush (Schoenoplectus juncoides); conditions: AAH 320 g/ha; application during weed generation, submerged conditions
Method in brief: (§3)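 Alluvial soil in Wagner pots was flooded to 4 cm depth and sown with the three weeds together; pots were kept in a greenhouse at 25° C. to 30° C. At the one to two leaf stage, an emulsion formulation diluted in water to a set rate went onto the water surface; scored three weeks later.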

wild oat [8] = assay: Test Example 4: herbicidal effect by soil treatment (Table 19, symbol I); format: in vivo, wild oat (Avena fatua); conditions: 320 g/ha
Method in brief: as §1

southern crabgrass [9] = assay: Test Example 5: herbicidal effect by foliage application, plastic box (Table 20, symbol F); format: in vivo, southern crabgrass (Digitaria ciliaris); conditions: foliage application, 320 g/ha, 3 weeks after application
Method in brief: as §2

green foxtail [10] = assay: Test Example 4: herbicidal effect by soil treatment (Table 19, symbol G); format: in vivo, green foxtail (Setaria viridis); conditions: 320 g/ha
Method in brief: as §1

lambsquarters [11] = assay: Test Example 4: herbicidal effect by soil treatment (Table 19, symbol O); format: in vivo, lambsquarters (Chenopodium album); conditions: 320 g/ha
Method in brief: as §1

blackgrass [12] = assay: Test Example 4: herbicidal effect by soil treatment (Table 19, symbol J); format: in vivo, blackgrass (Alopecurus myosuroides); conditions: 320 g/ha
Method in brief: as §1

late watergrass = assay: Test Example 2: herbicidal activity, application during weed generation under submerged conditions (Table 17, symbol A); format: in vivo, late watergrass (Echinochloa oryzicola); conditions: AAH 320 g/ha; application during weed generation, submerged conditions
Method in brief: as §3

chickweed = assay: Test Example 4: herbicidal effect by soil treatment (Table 19, symbol P); format: in vivo, common chickweed (Stellaria media); conditions: 320 g/ha
Method in brief: as §1

Italian ryegrass [13] = assay: Test Example 5: herbicidal effect by foliage application, plastic box (Table 20, symbol K); format: in vivo, Italian ryegrass (Lolium multiflorum); conditions: foliage application, 320 g/ha, 3 weeks after application
Method in brief: as §2

oval-leafed pondweed = assay: Test Example 2: herbicidal activity, application during weed generation under submerged conditions (Table 17, symbol C); format: in vivo, oval-leafed pondweed (Monochoria vaginalis); conditions: AAH 320 g/ha; application during weed generation, submerged conditions
Method in brief: as §3

windgrass [14] = assay: Test Example 5: herbicidal effect by foliage application, plastic box (Table 20, symbol L); format: in vivo, windgrass (Apera spica-venti); conditions: foliage application, 320 g/ha, 3 weeks after application
Method in brief: as §2

Italian ryegrass [15] = assay: Test Example 4: herbicidal effect by soil treatment (Table 19, symbol K); format: in vivo, Italian ryegrass (Lolium multiflorum); conditions: 320 g/ha
Method in brief: as §1

lambsquarters [16] = assay: Test Example 5: herbicidal effect by foliage application, plastic box (Table 20, symbol O); format: in vivo, lambsquarters (Chenopodium album); conditions: foliage application, 320 g/ha, 3 weeks after application
Method in brief: as §2

Chinese sprangletop = assay: Test Example 3: herbicidal effect by foliage application, Wagner pot (Table 18, symbol D); format: in vivo, chinese sprangletop (Leptochloa chinensis); conditions: 320 g/ha
Method in brief: (§4)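 Plants were sown in alluvial soil held under 0.1–0.5 cm standing water and grown 14 days in a greenhouse at 25–30 °C. An emulsifiable formulation, water-diluted to the set dose, was then sprayed onto the foliage, and effects were scored three weeks later using previously defined criteria.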

barnyard grass [17] = assay: Test Example 4: herbicidal effect by soil treatment (Table 19, symbol H); format: in vivo, barnyard grass (Echinochloa crus-galli); conditions: 320 g/ha
Method in brief: as §1

velvetleaf [18] = assay: Test Example 5: herbicidal effect by foliage application, plastic box (Table 20, symbol M); format: in vivo, velvetleaf (Abutilon theophrasti); conditions: foliage application, 320 g/ha, 3 weeks after application
Method in brief: as §2

rice flat sedge = assay: Test Example 3: herbicidal effect by foliage application, Wagner pot (Table 18, symbol E); format: in vivo, rice flat sedge (Cyperus iria); conditions: 320 g/ha
Method in brief: as §4

southern crabgrass [19] = assay: Test Example 4: herbicidal effect by soil treatment (Table 19, symbol F); format: in vivo, southern crabgrass (Digitaria ciliaris); conditions: 320 g/ha
Method in brief: as §1

blackgrass [20] = assay: Test Example 5: herbicidal effect by foliage application, plastic box (Table 20, symbol J); format: in vivo, blackgrass (Alopecurus myosuroides); conditions: foliage application, 320 g/ha, 3 weeks after application
Method in brief: as §2

barnyard grass [21] = assay: Test Example 3: herbicidal effect by foliage application, Wagner pot (Table 18, symbol H); format: in vivo, barnyard grass (Echinochloa crus-galli); conditions: 320 g/ha
Method in brief: as §4

SMILES: CCCC(=O)Oc1c(C)nn(C)c(=O)c1-c1c(-c2ccc(C(F)(F)F)cc2)sc2ccc(F)cc12 [2-021]
- herbicidal effect rating, R: persian speedwell (persian speedwell [1]): 5 (Herbicidal rate of 90% or more (almost completely withered))
- effect on barnyard grass (H) (barnyard grass [2]): 5 (Herbicidal rate of 90% or more (almost completely withered))
- effect on persian speedwell (R) (persian speedwell [3]): 5 (Herbicidal rate of 90% or more (almost completely withered))
- herbicidal effect rating, L: windgrass (windgrass [4]): 5 (Herbicidal rate of 90% or more (almost completely withered))
- herbicidal effect rating, N: redroot pigweed (redroot pigweed): 5 (Herbicidal rate of 90% or more (almost completely withered))
- herbicidal effect rating, M: velvetleaf (velvetleaf [5]): 4 (Herbicidal rate of 70% or more and less than 90%)
- effect on green foxtail (G) (green foxtail [6]): 5 (Herbicidal rate of 90% or more (almost completely withered))
- effect on wild oat (I) (wild oat [7]): 5 (Herbicidal rate of 90% or more (almost completely withered))
- herbicidal effect rating, B: Japanese bulrush (Japanese bulrush): 2 (Herbicidal rate of 20% or more and less than 40%)
- herbicidal effect rating, I: wild oat (wild oat [8]): 0 (Herbicidal rate of 5% or less (almost no effect))
- effect on southern crabgrass (F) (southern crabgrass [9]): 4 (Herbicidal rate of 70% or more and less than 90%)
- herbicidal effect rating, G: green foxtail (green foxtail [10]): 5 (Herbicidal rate of 90% or more (almost completely withered))
- herbicidal effect rating, O: lambsquarters (lambsquarters [11]): 5 (Herbicidal rate of 90% or more (almost completely withered))
- herbicidal effect rating, J: blackgrass (blackgrass [12]): 0 (Herbicidal rate of 5% or less (almost no effect))
- herbicidal effect rating, A: late watergrass (late watergrass): 0 (Herbicidal rate of 5% or less (almost no effect))
- herbicidal effect rating, P: chickweed (chickweed): 5 (Herbicidal rate of 90% or more (almost completely withered))
- effect on Italian ryegrass (K) (Italian ryegrass [13]): 5 (Herbicidal rate of 90% or more (almost completely withered))
- herbicidal effect rating, C: oval-leafed pondweed (oval-leafed pondweed): 0 (Herbicidal rate of 5% or less (almost no effect))
- effect on windgrass (L) (windgrass [14]): 5 (Herbicidal rate of 90% or more (almost completely withered))
- herbicidal effect rating, K: Italian ryegrass (Italian ryegrass [15]): 5 (Herbicidal rate of 90% or more (almost completely withered))
- effect on lambsquarters (O) (lambsquarters [16]): 5 (Herbicidal rate of 90% or more (almost completely withered))
- herbicidal effect on D (Chinese sprangletop), rating 0-5 (Chinese sprangletop): 3 (Herbicidal rate of 40% or more and less than 70%)
- herbicidal effect rating, H: barnyard grass (barnyard grass [17]): 4 (Herbicidal rate of 70% or more and less than 90%)
- effect on velvetleaf (M) (velvetleaf [18]): 5 (Herbicidal rate of 90% or more (almost completely withered))
- herbicidal effect on E (rice flat sedge), rating 0-5 (rice flat sedge): 5 (Herbicidal rate of 90% or more (almost completely withered))
- herbicidal effect rating, F: southern crabgrass (southern crabgrass [19]): 5 (Herbicidal rate of 90% or more (almost completely withered))
- effect on blackgrass (J) (blackgrass [20]): 3 (Herbicidal rate of 40% or more and less than 70%)
- herbicidal effect on H (barnyard grass), rating 0-5 (barnyard grass [21]): 5 (Herbicidal rate of 90% or more (almost completely withered))
